Test system: S. Typhimurium PhoP-promoter GFP reporter counterscreen, fluorescence, 4 h
Experiment: S. Typhimurium GFP fluorescence modified counterscreen for PhoP regulon inhibitor project dose response (AID 1981)

SMILES	IC50 [µM]
O=Nc1ccc(O)c2ncccc12	41.4
O=C(Nc1nnc(-c2cccs2)o1)c1cccc(Oc2ccccc2)c1	54.6
COc1cccc(Nc2nc(NCC3CCCO3)c3ccccc3n2)c1 (configuration not stated)	102
CCc1ccc(NC(=O)C[n+]2cc(-c3ccc(C)cc3)n3c2CCC3)cc1	146
CCCC(=O)NC(c1ccc(C)cc1)c1ccc2cccnc2c1O (configuration not stated)	54.7
CN(C)c1ccc(/C=C/c2ccc3c4ccccc4ccc3[n+]2-c2ccccc2)cc1	18.8
CCCOc1ccc(C(=O)NC(=S)N2CCN(c3cc4c(cc3F)c(=O)c(C(=O)O)cn4CC)CC2)cc1	18.6
Cc1cc(C(=O)N/N=C/c2ccc([N+](=O)[O-])s2)n[nH]1	36.7
CCOc1cc(/C=N/N=C(N)N)ccc1OCc1ccc(Cl)cc1	56.8
Oc1ccc(/C=N/Nc2nccnc2Cl)c(O)c1	63.2
CN1CCN(C(c2ccc(Br)cc2)c2cc(Cl)c3cccnc3c2O)CC1 (configuration not stated)	24
Clc1ccc(CNCc2cccs2)cc1Cl	123
CC(C)(C)CC(C)(C)c1ccc(OCCOCC[N+](C)(C)Cc2ccccc2)cc1	47.1
Cc1ccc(S(=O)(=O)/N=C2/C=C(Sc3ncn[nH]3)C(=O)c3ccccc32)cc1	36.6
CO[C@H]1/C=C/O[C@@]2(C)Oc3c(C)c(O)c4c(O)c(c(C=NN5CCN(C)CC5)c(O)c4c3C2=O)NC(=O)/C(C)=C\C=C\[C@H](C)[C@H](O)[C@@H](C)[C@@H](O)[C@@H](C)[C@H](OC(C)=O)[C@@H]1C	10.3
O=[N+]([O-])c1cc(CN2CCCC2)c2cccnc2c1O	57.1
Cc1ccc(C(C[N+](=O)[O-])c2c(N)n(C)c(=O)n(C)c2=O)cc1 (configuration not stated)	18.4
Oc1cccc(Nc2nc(NCC3CCCO3)c3ccccc3n2)c1 (configuration not stated)	148
O=C1C(=O)c2ccccc2-c2ccccc21	87.3
CN(C)C1C(=O)C(C(N)=O)=C(O)C2(O)C(=O)C3=C(O)c4c(O)cccc4C(C)(O)C3CC12 (configuration not stated)	0.67
CC1CCc2c(N3CCC(O)CC3)c(F)cc3c(=O)c(C(=O)O)cn1c23 (configuration not stated)	6.56
CCOC(=O)N1CCN(C(=O)c2cn(CC)c3cc(N4CCN(C)CC4)c(F)cc3c2=O)CC1	8.51
CS(=O)(=O)c1ccc([C@@H](O)[C@@H](CO)NC(=O)C(Cl)Cl)cc1	63.7

SMILES	IC50 [µM]
CN1CCN(CCCN2c3ccccc3Sc3ccc(Cl)cc32)CC1	148
CC1CCc2cc(F)cc3c(=O)c(C(=O)O)cn1c23 (configuration not stated)	13.5
Cc1cc2nc3ccc(=[N+](C)C)cc-3sc2cc1N	32.4
Cc1cc(C(C)(C)CC(C)(C)C)ccc1OCCOCC[N+](C)(C)Cc1ccccc1	34.6
CC(=O)NC(c1cccc([N+](=O)[O-])c1)c1ccc2cccnc2c1O (configuration not stated)	72.5
O=C(Oc1ccc[nH]c1=O)c1cc([N+](=O)[O-])cc([N+](=O)[O-])c1	79.7
O=C(/C=C/c1ccco1)Oc1cc(Br)cc(/C=N/NC(=O)c2ccccc2O)c1	134
O=C(Cn1nc(CNc2ccc(Cl)cc2)[n+]2c1CCCCC2)c1ccc(Br)cc1	88.2
CCCCCCCCCCOC(=O)Cn1c(COc2cccc(C)c2)[n+](C)c2ccccc21	28.5
O=C(N/N=C/c1ccc(Sc2ccccn2)o1)c1cc2ccccc2cc1O	110
O=c1[nH]cc(F)c(=O)[nH]1	4.17
O=C(c1cccs1)c1no[n+]([O-])c1C(=O)c1cccs1	13
CC[C@H]1OC(=O)C[C@@H](O)[C@H](C)[C@@H](O[C@@H]2O[C@H](C)C[C@H](N(C)C)[C@H]2O)[C@@H](CC=O)C[C@@H](C)C(=O)C=C[C@]2(C)O[C@H]2[C@@H]1C	10.2
CCCCCC(CC(=O)NO)C(=O)NC(C(=O)N1CCCC1CO)C(C)C (configuration not stated)	33.3
COc1ccccc1CNCC(O)Cn1c2ccccc2c2ccccc21 (configuration not stated)	88.7
CCn1cc(C(=O)O)c(=O)c2cc(F)c(N3CCN(C(=S)NC(=O)c4ccc(F)cc4)CC3)cc21	53.4
COc1ccc(OC)c(C(=O)C2COC(=O)C2)c1 (configuration not stated)	134
Cc1ccc(Nc2cc(C)nn2-c2nc(C)cc(=O)[nH]2)cc1	12.4
OCc1ccc(O)c2ncccc12	146
COc1ccccc1CNCCc1ccc(F)cc1	61.4
CCn1cc(C(=O)NCC(C)C)c(=O)c2cc(F)c(N3CCN(C)CC3)cc21	72.6
N=c1n(CC(=O)c2ccc(Br)s2)c2ccccc2n1Cc1ccccc1	131
O=C(N/N=C/c1cc([N+](=O)[O-])ccc1O)c1ccncc1	101

SMILES	IC50 [µM]
CCCCCN=C(N)N/N=C/c1c[nH]c2ccc(OC)cc12	40.4
CCn1cc(C(=O)O)c(=O)c2ccc(C)nc21	117
ON=C1/C(=N\O)CC2(C/C1=N/O)OCCO2	125
Cc1nc(N)nc(N)c1/C=C/C(C)(C)c1ccc(Cl)cc1	12.9
CCCCCCOC(=O)C[N+](C)(C)CCOC1CC2CCC1(C)C2(C)C (configuration not stated)	71.2
Cc1cccc(Nc2cc(C)c3c(O)cccc3n2)c1C	82.7
CCCCCCCCn1c2c(c(=N)c3ccccc31)CCC2	78.7
O=C(N[C@H](CO)[C@H](O)c1ccc([N+](=O)[O-])cc1)C(Cl)Cl	8.46
Oc1ccc(CN2CCN(Cc3ccccc3)CC2)c2cccnc12	59.2
CCOc1ccc(NC(=O)c2ccc(NC(=O)c3cn4c5c(c(N6CCN(C)CC6)c(F)cc5c3=O)OCC4C)cc2)cc1 (configuration not stated)	4.1
Oc1ccc(CN2CCCc3ccccc32)c2cccnc12	20
NCCc1c(-c2ccccc2)n(-c2ccccc2)c2ccccc12	83.7
Cc1ccc(S(=O)(=O)Nc2cc(Cl)c(O)c3ncccc23)cc1	37.5
CCCCOc1ccc(Cc2cnc(N)nc2N)cc1	81.3
O=[N+]([O-])c1ccc(N/N=C/c2ccc[nH]2)cc1	141
Cc1ccc(Nc2nc(NCc3ccco3)c3ccccc3n2)cc1	23.6
COc1ccc(C(C[N+](=O)[O-])n2nc(C)cc2C)cc1 (configuration not stated)	21.6
Clc1ccc(OCCCNCc2ccccc2)c(Br)c1	71.8
C#CCOCCOCCOCCNc1nc(N2CCN(C(=O)CCCCCCCCCCNC(=O)[C@H]([C@@H](C)CC)n3cc(CCCCN=C(N)N)nn3)CC2)nc(N2CCN(C(=O)CCCCCCCCCCNC(=O)[C@H]([C@@H](C)CC)n3cc(CCCCN=C(N)N)nn3)CC2)n1	61.1
O=C(O)CSc1cc(NS(=O)(=O)c2cccc([N+](=O)[O-])c2)c2ccccc2c1O	73.2
COC(=O)C(C)NC(=S)N1CCN(c2c(F)cc3c(=O)c(C(=O)O)cn(C4CC4)c3c2OC)CC1C (configuration not stated)	60.6

From PubChem BioAssay AID1981 (Southern Research Specialized Biocontainment Screening …, 2009)
